Laboratory results from paper PMC9317966, “Structure-function analysis of the AMPK activator SC4 and identification of a potent pan AMPK activator” (Biochemical Journal, 2022).

Target: T1, E. coli-expressed His-α2β1γ1 AMPK (Homo sapiens, UniProt P54646+Q9Y478)
T1 construct: Recombinant full-length AMPK 6xHisα2β1γ1 was expressed in E. coli Rosetta 2 (DE3); made in house; host or cells: E. coli Rosetta 2 (DE3)
Test: In solution SAMS kinase assay, E. coli-expressed myristoylated His-α2β1γ1, CaMKK2-treated
Assay type: biochemical
Settings: for EC50 / Max. fold activation: E. coli-expressed α2β1γ1, CaMKK2-treated; for sensitivity to activation relative to immobilised GST-α2β1γ1 from HEK293T/17 cells: His-tagged myristoylated α2β1γ1, E. coli, CaMKK2-treated
Source text: We directly compared in vitro potencies of pan activators by performing radiolabel kinase assays with γ1AMPK complexes. Initially, we used GST-tagged γ1AMPK expressed in HEK293T/17 cells and immobilised on glutathione-Sepharose (Figure 2 and Table 2). […] These assays used AMPK purified from Sf9 insect cells or E. coli that was pre-treated with CaMKK2. […] However, relative to immobilised GST-α2β1γ1 from HEK293T/17 cells, His-tagged and myristoylated α2β1γ1 AMPK (expressed in E. coli, CaMKK2-treated and assayed in solution) was at least 10-fold more sensitive to activation by both MK-8722 and MSG011 (Supplementary Figure S3B), indicating the GST-affinity tag or CaMKK2 treatment may exert some influence on sensitivity to these activators.
Recombinant full-length AMPK 6xHisα2β1γ1 was expressed in E. coli Rosetta 2 (DE3) (Merck Millipore) after double-transformation of pET-Duet-1 (α and γ subunits) and pCOLA (β subunit) vectors. Expression cultures were grown at 37°C in Luria-Bertani broth supplemented with 100 µg ml^−1 ampicillin and 50 µg ml^−1 kanamycin. Cultures shaking at 120 rpm in PYREX 2800 ml Fernbach-style culture flasks with baffles (Corning) were grown to an optical density (OD600) of 3.0 before induction with 500 µM isopropyl-β-D-1-thiogalactopyranoside (IPTG; Gold Biotechnology) and incubation overnight at 16°C. Cell pellets were resuspended in lysis buffer (50 mM TRIS pH 7.6, 500 mM NaCl, 5% (v/v) glycerol, 50 mM imidazole, 2 mM β-mercaptoethanol, 0.01 mM leupeptin, 0.1 mM AEBSF, 0.5 mM benzamidine hydrochloride), lysed using a precooled EmulsiFlex-C5 homogeniser (Avestin) and clarified via centrifugation (16 000g, 30 min, 4°C). Supernatant was passed through a HisTrap HP 5 ml Ni^2+ column (GE Healthcare) at 1 ml min^−1. The column was washed with 10 column volumes of chilled Ni^2+ column buffer (50 mM TRIS pH 7.6, 500 mM NaCl, 10% (v/v) glycerol, 50 mM imidazole, 2 mM β-mercaptoethanol) before elution with Ni^2+ column buffer supplemented with 400 mM imidazole. Proteinaceous fractions were then separated on a HiLoad 16/600 Superdex 200 gel filtration column (GE Healthcare) pre-equilibrated with size exclusion column buffer (SEC buffer; 50 mM TRIS pH 8.0, 150 mM NaCl, 2 mM tris(2-carboxyethyl) phosphine (TCEP)). AMPK containing fractions were pooled and concentrated to ∼2 mg ml^−1 using Amicon centrifugal filter units (Merck Millipore) prior to CaMKK2 treatment.
To phosphorylate AMPK, purified protein was incubated in the presence of 0.5 mM ATP, 0.5 mM AMP, 2.5 mM MgCl2 (Merck Millipore), SEC buffer and purified CaMKK2 (1 : 2500 mass ratio of CaMKK2:AMPK; for 1 h at 22°C with gentle rolling. The phosphorylation reaction was terminated by directly loading onto a HiLoad 16/600 Superdex 200 gel filtration column pre-equilibrated with SEC buffer. Protein was either assayed or concentrated to ∼10 mg ml^−1 using Amicon centrifugal filter units and flash frozen in L-N2 and stored at −80°C. The purified AMPK was analysed by ToF-MS and sample purity confirmed by SDS–PAGE.
AMPK activity was determined by phosphorylation of the SAMS peptide (Purar Chemicals, sequence: NH2-HMRSAMSGLHLVKRR-COOH) in a 25 µl reaction volume containing 100 µM SAMS peptide, 5 mM MgCl2, 200 µM ATP, [γ-^32P]-ATP (PerkinElmer) and assay buffer (50 mM HEPES pH 7.4, 1 mM DTT and 0.02% (v/v) Tween-20) and purified AMPK. Phosphotransferase activity was conducted at 30°C for 10 min and reactions were quenched by spotting 15 µl onto phosphocellulose ion-exchange chromatography paper (made in-house), followed by repeated washes in 1% H3PO4 (Merck Millipore). Ultima Gold liquid scintillation fluid (5 ml; PerkinElmer) was added to vials containing dried phosphocellulose papers, and the level of ^32P-transfer to the SAMS peptide was determined using a Tri-Carb 2900TR liquid scintillation counter (PerkinElmer).
⍺1β1γ1 – in solution E. coli-expressed ⍺2β1γ1
log [compound] (M) log [compound] (M)
Compound EC (nM) Max. fold Compound EC50 (nM) Max. fold […]

T1 sequence (P54646 whole entry): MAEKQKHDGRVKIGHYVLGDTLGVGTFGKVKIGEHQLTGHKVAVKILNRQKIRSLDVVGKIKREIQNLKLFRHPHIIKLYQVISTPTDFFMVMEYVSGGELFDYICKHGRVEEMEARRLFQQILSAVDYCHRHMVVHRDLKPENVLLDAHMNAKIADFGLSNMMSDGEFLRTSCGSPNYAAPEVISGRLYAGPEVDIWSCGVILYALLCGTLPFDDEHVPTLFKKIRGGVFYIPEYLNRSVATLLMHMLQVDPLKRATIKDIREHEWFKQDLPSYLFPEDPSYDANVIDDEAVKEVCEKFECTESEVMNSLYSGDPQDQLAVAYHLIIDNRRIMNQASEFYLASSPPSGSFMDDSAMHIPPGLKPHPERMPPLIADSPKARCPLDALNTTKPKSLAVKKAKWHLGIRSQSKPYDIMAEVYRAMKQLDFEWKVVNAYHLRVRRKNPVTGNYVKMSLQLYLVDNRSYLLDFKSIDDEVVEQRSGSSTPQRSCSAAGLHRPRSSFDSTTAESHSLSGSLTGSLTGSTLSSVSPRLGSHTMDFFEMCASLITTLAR
T1 sequence (Q9Y478 whole entry): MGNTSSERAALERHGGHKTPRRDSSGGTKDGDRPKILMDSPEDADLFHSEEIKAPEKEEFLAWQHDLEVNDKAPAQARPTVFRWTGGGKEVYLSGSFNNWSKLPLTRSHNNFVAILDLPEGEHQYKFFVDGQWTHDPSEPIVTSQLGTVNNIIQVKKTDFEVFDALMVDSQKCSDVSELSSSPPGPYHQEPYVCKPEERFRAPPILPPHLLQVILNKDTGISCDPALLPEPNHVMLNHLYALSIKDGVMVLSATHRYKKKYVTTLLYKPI
T1 sequence (P54619 whole entry partner): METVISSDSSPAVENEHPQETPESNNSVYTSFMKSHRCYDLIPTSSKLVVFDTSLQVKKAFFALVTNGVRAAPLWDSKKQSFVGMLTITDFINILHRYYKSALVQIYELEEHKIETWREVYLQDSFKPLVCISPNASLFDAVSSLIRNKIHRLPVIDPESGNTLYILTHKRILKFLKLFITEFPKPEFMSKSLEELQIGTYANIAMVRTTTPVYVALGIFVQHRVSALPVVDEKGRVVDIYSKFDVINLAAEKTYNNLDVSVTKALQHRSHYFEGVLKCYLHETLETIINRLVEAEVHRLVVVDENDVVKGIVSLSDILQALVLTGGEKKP

Row | EC50 [nM] | Max. fold activation [fold] | sensitivity to activation relative to immobilised GST-α2β1γ1 from HEK293T/17 cells | SMILES
1 | 334 | 3.6 | at least 10 fold | O[C@@H]1CO[C@H]2[C@@H]1OC[C@H]2Oc1nc2nc(-c3ccc(-c4ccccc4)cc3)c(Cl)cc2[nH]1 [MK-8722, reference compound]
2 | 32.6 | 5.5 | at least 10 fold | CC(=O)NC1CC=C(c2ccc(-c3nc4nc(Oc5ccc(C)c(C(=O)O)c5)[nH]c4cc3Cl)cc2)CC1 (stereo not drawn) [MSG011, 5-((5-(4′-Acetamido-2′,3′,4′,5′-tetrahydro-[1,1′-biphenyl]-4-yl)-6-chloro-1H-imidazo[4,5-b]pyridin-2-yl)oxy)-2-methylbenzoic acid]
